We go through eleven compounds from US20120225909A1, “INDAZOLE ANALOG” (priority 2009, published 2012).

The structures appear in SMILES notation.

By EC50 is commonly meant the concentration that produces a half-maximal response. High values mean lower potency in that assay, low ones higher potency in that assay.

Data set [1] addresses T1, human β2-adrenergic receptor (Homo sapiens, UniProt P07550).
T1 construct: expressed in transfected cells; host or cells: CHO (Chinese hamster ovary) cells, pcDNA3
As to the kind of experiment: Test Case 3-B: human β2-adrenergic receptor agonist activity. In kind it is cell-based. As to conditions: read-out: β2 receptor I.A. The procedure:
(§1) Measurement of Human β2-Adrenergic Receptor Agonist Activity
The human β2-adrenergic receptor agonist activity is measured by the same method as in Test Case 1-B using CHO (Chinese hamster ovary) cells transfected by a human β2 gene inserted in pcDNA3 (Invitrogen).

In data set [2] the target is T2, human α1A-adrenergic receptor (Homo sapiens, UniProt P35348).
T2 sequence (P35348 1-466): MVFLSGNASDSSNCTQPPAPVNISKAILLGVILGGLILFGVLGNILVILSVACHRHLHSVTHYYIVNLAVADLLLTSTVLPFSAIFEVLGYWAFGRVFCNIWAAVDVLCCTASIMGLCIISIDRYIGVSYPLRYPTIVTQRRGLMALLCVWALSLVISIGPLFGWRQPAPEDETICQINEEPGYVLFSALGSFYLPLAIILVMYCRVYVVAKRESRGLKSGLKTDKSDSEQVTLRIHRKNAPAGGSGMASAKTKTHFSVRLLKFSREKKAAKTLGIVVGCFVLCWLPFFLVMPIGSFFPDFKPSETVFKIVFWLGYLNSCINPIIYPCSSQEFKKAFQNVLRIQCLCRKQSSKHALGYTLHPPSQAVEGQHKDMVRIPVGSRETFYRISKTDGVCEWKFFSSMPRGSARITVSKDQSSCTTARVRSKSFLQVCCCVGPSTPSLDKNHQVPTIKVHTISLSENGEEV
The data set can be described thus: Test Case 4-A: human α1A-adrenergic receptor agonist activity (HEK293, Ca flux, Fura-2). In kind it is cell-based. Set-up: expressed in transfected cells; host or cells: HEK293 cells, pcDNA3.1. As to conditions: HEK293; read-out: α1A receptor I.A. An outline of the steps:
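Fura-2AM-loaded HEK293 cells transfected with human α1A were preincubated for 180 s. Compound (sample plate 10^−5 to 10^−12 M) was added after ~30 s of 340/380 nm excitation ratio reading (500 nm emission, 2-s intervals), followed by 270 s more reading. Ca flux is the peak height: maximum ratio after addition minus the pre-addition ratio.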

For data set [3], the target named is T3, human β3-adrenergic receptor (Homo sapiens, UniProt P13945).
T3 construct: A full-length human β3 gene is obtained from a human genomic library (made by Clontech) using this as the probe; expressed in transfected cells; host or cells: CHO (Chinese hamster ovary) cells, pcDNA3
As to the kind of experiment: Test Case 1-B: human β3-adrenergic receptor agonist activity (cAMP-Screen, 96-well). In kind it is cell-based. As to conditions: for Emax: 0.5 h, read-out: β3 receptor I.A.; for EC50: Test Case 1-B, CHO cells, cAMP. An outline of the steps:
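CHO cells stably transfected with full-length human β3 gene, serum-starved 15 min, then exposed to serially diluted compound in Ham's F-12 with 100 mmol/L HEPES and 1 mmol/L IBMX (diluent concentrations) for 30 min. Cells lysed 30 min at 37 °C; cAMP quantified by cAMP-Screen immunoassay.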

Another data set has as its system Male C57BL/6 Cr mice. The data set can be described thus: Test Case 10: mouse piloerection test. In kind it is in vivo. As to conditions: 10 mg/kg i.v. The procedure: Male C57BL/6 Cr mice (Japan SLC) are used. The dissolved compound is administered rapidly via a caudal vein. The animal is placed on the observation stand 5, 15, 30, and 60 minutes after administration, and the state of piloerection is observed. The state of piloerection is evaluated by the following 7-level scoring system according to the examples by the method of Irwin (Psychopharmacologia 1968, 13; 222-257).
Scoring system: “Score 0”: No piloerection at all; “Score 1”: Slight piloerection (piloerection on part of the body such as the back or neck); “Score 2”: Moderate piloerection (piloerection over the entire body); “Score 3”: Marked piloerection (piloerection over the entire body, conspicuous to the extent that the skin can be seen).
“Score 0.5” is between “Score 0” and “Score 1” “Score 1.5” is between […]. “Score 2.5” is between “Score 2” and “Score 3.”

In data set [4] the target is T4, human β1-adrenergic receptor (Homo sapiens, UniProt P08588).
T4 construct: expressed in transfected cells; host or cells: CHO (Chinese hamster ovary) cells, pcDNA3
As to the kind of experiment: Test Case 2-B: human β1-adrenergic receptor agonist activity. In kind it is cell-based. The note with it: read-out: β1 receptor I.A. The procedure:
(§2) Measurement of Human β1-Adrenergic Receptor Agonist Activity
The human β1-adrenergic receptor agonist activity is measured by the same method as in Test Case 1-B using CHO (Chinese hamster ovary) cells transfected by a human β1 gene inserted in pcDNA3 (Invitrogen).

Data set [5] deals with T1, human β2-adrenergic receptor. As to the kind of experiment: Test Case 3-C: human β2-adrenergic receptor agonist activity (Cerep cellular functional GPCR, beta 2). In kind it is cell-based. As to conditions: concentration 10 μM, isoproterenol = 100%.
Description: as §1

The target in data set [6] is T4, human β1-adrenergic receptor. As to the kind of experiment: Test Case 2-C: human β1-adrenergic receptor agonist activity (Cerep cellular functional GPCR, beta 1). In kind it is cell-based. As to conditions: concentration 10 μM, isoproterenol = 100%.
Description: as §2

The target in data set [7] is T2, human α1A-adrenergic receptor. The data set can be described thus: Test Case 4-B: human α1A-adrenergic receptor agonist activity (Cerep cellular functional GPCR, alpha 1A). In kind it is cell-based. More on the design: expressed in transfected cells. The note with it: concentration 10 μM; for α1 receptor % of Control Agonist Response, Control; Epinephrine: epinephrine = 100%; for α1 receptor % of Control Agonist Response, Control; Norepinephrine: norepinephrine = 100%. The text has this: Measurement of Human α1A-Adrenergic Receptor Agonist Activity
The human α1A-adrenergic receptor agonist activity] can be measured by […] Functional GPCR·Gs, alpha 1A (Ref. 722-36a) listed on p. 52 of the Cerep 2008 CATALOG IN VITRO PHARMACOLOGY & ADME-TOX.

T3 sequence (P13945 whole entry): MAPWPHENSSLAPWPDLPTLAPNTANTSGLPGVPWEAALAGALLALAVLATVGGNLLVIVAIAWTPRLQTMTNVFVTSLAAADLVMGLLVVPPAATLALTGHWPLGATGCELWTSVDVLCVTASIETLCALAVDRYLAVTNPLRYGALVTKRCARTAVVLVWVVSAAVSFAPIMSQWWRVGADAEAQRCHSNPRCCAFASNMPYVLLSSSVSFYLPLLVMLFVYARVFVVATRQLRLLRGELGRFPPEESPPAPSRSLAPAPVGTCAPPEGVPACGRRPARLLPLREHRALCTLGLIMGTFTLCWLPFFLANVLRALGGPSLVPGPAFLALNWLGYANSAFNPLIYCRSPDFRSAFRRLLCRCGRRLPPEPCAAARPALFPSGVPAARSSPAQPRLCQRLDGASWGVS
T1 sequence (P07550 whole entry): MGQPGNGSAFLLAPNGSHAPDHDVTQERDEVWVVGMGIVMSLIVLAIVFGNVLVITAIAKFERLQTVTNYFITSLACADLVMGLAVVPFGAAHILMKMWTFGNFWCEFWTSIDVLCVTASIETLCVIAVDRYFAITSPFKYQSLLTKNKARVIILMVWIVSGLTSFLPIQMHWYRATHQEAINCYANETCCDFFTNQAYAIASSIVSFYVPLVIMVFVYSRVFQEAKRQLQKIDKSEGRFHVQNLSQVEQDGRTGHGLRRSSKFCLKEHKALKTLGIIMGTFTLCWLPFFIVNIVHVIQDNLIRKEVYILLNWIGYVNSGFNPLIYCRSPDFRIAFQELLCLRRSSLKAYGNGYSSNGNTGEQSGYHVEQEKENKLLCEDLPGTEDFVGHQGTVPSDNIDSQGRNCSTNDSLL
T4 sequence (P08588 whole entry): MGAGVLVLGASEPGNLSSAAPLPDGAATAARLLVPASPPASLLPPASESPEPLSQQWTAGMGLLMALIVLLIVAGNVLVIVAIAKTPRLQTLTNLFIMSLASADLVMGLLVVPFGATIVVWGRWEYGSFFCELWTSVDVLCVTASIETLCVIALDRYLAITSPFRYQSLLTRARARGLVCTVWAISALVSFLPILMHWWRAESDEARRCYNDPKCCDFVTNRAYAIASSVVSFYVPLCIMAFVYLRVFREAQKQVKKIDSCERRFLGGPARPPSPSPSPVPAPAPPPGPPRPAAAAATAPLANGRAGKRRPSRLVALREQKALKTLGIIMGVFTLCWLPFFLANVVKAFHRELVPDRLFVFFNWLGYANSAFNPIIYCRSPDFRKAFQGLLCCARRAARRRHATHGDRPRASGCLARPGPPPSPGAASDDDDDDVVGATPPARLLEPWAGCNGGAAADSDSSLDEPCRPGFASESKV

In the case of `COc1n[nH]c2cc(OCCNC[C@H](O)c3cccc(NS(=O)(=O)c4cc(N)ccc4F)c3)ccc12` [ex6, (R)-5-amino-2-fluoro-N-(3-(1-hydroxy-2-(2-(3-methoxyindazol-6-yloxy)ethylamino)ethyl)phenyl)benzenesulfonamide], the Emax in data set [1] was determined as 7%; in data set [2], 0%; in data set [3], 84%; in data set [4], 10%. This compound gave an EC50 in data set [3] of 0.7 nM. For the same compound, the “number of experimental animals matching Score 0 (no piloerection)” value was determined as 4 in the data set on Male C57BL/6 Cr mice (n=4, observation time 5 min); 4 in the data set with Male C57BL/6 Cr mice (n=4, observation time 15 min); 4 with Male C57BL/6 Cr mice (n=4, observation time 30 min); 4 with Male C57BL/6 Cr mice (n=4, observation time 60 min).

With `Cc1n[nH]c2cc(OCCNC[C@H](O)c3cccc(NS(=O)(=O)c4ccc(Cl)c(N)c4)c3)ccc12` [ex7, (R)-3-amino-4-chloro-N-(3-(1-hydroxy-2-(2-(3-methylindazol-6-yloxy)ethylamino)ethyl)phenyl)benzenesulfonamide], the “β2 receptor % of Control Agonist Response” value (shortened to “β2 receptor %”) in data set [5] is reported as 3.7%. The “β1 receptor % of Control Agonist Response” value (from here on “β1 receptor %”) in data set [6] was 15%. Also, in data set [7], the “α1 receptor % of Control Agonist Response, Control; Epinephrine” value (“α1 receptor % … Control; Epinephrine” for short) turned out to be 25% and the “α1 receptor % of Control Agonist Response, Control; Norepinephrine” value (shortened to “α1 receptor % … Norepinephrine”) came out at 21%.

With `COc1n[nH]c2cc(OCCNC[C@H](O)c3cccc(NS(=O)(=O)c4cn[nH]c4)c3)ccc12` [ex23, (R)-N-( ? -(1-hydroxy-2-(2-(3-methoxyindazol-6-yloxy)ethylamino)ethyl)phenyl)pyrazole-4-sulfonamide], the “β2 receptor %” value in data set [5] turned out to be 0.5%. In addition, the “β1 receptor %” value in data set [6] was 2.1%. Moreover, in data set [7], the “α1 receptor % … Control; Epinephrine” value amounted to 32% and the “α1 receptor % … Norepinephrine” value is 27%.

With `Cc1n[nH]c2cc(OCCNC[C@H](O)c3cccc(NS(=O)(=O)c4ccc(F)c(N)c4)c3)ccc12` [ex58, (R)-3-amino-4-fluoro-N-(3-(1-hydroxy-2-(2-(3-methylindazol-6-yloxy)ethylamino)ethyl)phenyl) benzenesulfonamide], in data set [5], the “β2 receptor %” value came to 1.8%. In addition, the “β1 receptor %” value in data set [6] is given as 18%. Also, in data set [7], the “α1 receptor % … Control; Epinephrine” value turned out to be 0.6% and the “α1 receptor % … Norepinephrine” value is reported as 0.5%.

Consider `Cc1n[nH]c2cc(OCCNC[C@H](O)c3cccc(NS(=O)(=O)c4cc(F)c(F)cc4F)c3)ccc12` [ex85, (R)-2,4,5-trifluoro-N-(3-(1-hydroxy-2-(2-(3-methylindazol-6-yloxy)ethylamino)ethyl)phenyl) benzenesulfonamide], for which, in data set [5], the “β2 receptor %” value is 1.0%. Besides, the “β1 receptor %” value in data set [6] came out at 30%. In addition, in data set [7], the “α1 receptor % … Control; Epinephrine” value came out at 0.1% and the “α1 receptor % … Norepinephrine” value amounted to 0.1%.

Turning to `Nc1ccc(F)c(S(=O)(=O)Nc2cccc([C@@H](O)CNCCOc3ccc4c(OC(F)F)n[nH]c4c3)c2)c1` [ex106], the “β2 receptor %” value in data set [5] was determined as 2.1%. Further, the “β1 receptor %” value in data set [6] came out at 11%. For the same compound, in data set [7], the “α1 receptor % … Control; Epinephrine” value is recorded as −0.2% and the “α1 receptor % … Norepinephrine” value is given as −0.2%.

Consider `CCc1n[nH]c2cc(OCCNC[C@H](O)c3cccc(NS(=O)(=O)C4CC4)c3)ccc12` [ex124, (R)-N-(3-(2-(2-(3-ethylindazol-6-yloxy)ethylamino)-1-hydroxyethyl)phenyl)-cyclopropanesul-fonamide], for which the Emax was -1% in data set [1], 0% in data set [2], 52% in data set [3] and -6% in data set [4]. This compound also returned an EC50 in data set [3] of 13 nM. For the same compound, the “number of experimental animals matching Score 0 (no piloerection)” value amounted to 2 in the data set on Male C57BL/6 Cr mice (n=4, observation time 5 min); 2 with Male C57BL/6 Cr mice (n=4, observation time 30 min); 2 with Male C57BL/6 Cr mice (n=4, observation time 60 min). The “number of experimental animals matching Score 0.5” value amounted to 1 in the data set with Male C57BL/6 Cr mice (n=4, observation time 5 min); 3 in the data set with Male C57BL/6 Cr mice (n=4, observation time 15 min); 2 in the data set with Male C57BL/6 Cr mice (n=4, observation time 30 min); 2 with Male C57BL/6 Cr mice (n=4, observation time 60 min). The “number of experimental animals matching Score 1 (slight piloerection)” value in the data set on Male C57BL/6 Cr mice (n=4, observation time 5 min) is listed as 1; in the data set on Male C57BL/6 Cr mice (n=4, observation time 15 min), 1.

Take `CCc1n[nH]c2cc(OCCNC[C@H](O)c3cccc(NS(=O)(=O)c4ccccc4F)c3)ccc12` [ex128, (R)-N-(3-(2-(2-(3-ethylindazol-6-yloxy)ethylamino)-1-hydroxyethyl)phenyl)-2-fluorobenzene-sulfonamide]: the “β2 receptor %” value in data set [5] is 0.3%. In data set [6], the “β1 receptor %” value stood at 10%. Further, in data set [7], the “α1 receptor % … Control; Epinephrine” value is recorded as 16% and the “α1 receptor % … Norepinephrine” value came to 14%.

As to `CCc1n[nH]c2cc(OCCNC[C@H](O)c3cccc(NS(=O)(=O)c4cc(N)ccc4F)c3)ccc12` [ex148, (R)-5-amino-N-(3-(2-(2-(3-ethylindazol-6-yloxy)-ethylamino)-1-hydroxyethyl)phenyl)-2-fluorobenzene-sulfonamide], in data set [5], the “β2 receptor %” value was 0.8%. In addition, the “β1 receptor %” value in data set [6] was found to be 15%. Further, in data set [7], the “α1 receptor % … Control; Epinephrine” value is listed as −0.2% and the “α1 receptor % … Norepinephrine” value is recorded as −0.2%.

As to `O=S(=O)(Nc1cccc([C@@H](O)CNCCOc2ccc3c(Cl)n[nH]c3c2)c1)c1cccnc1` [ex155, (R)-N-(3-(2-(2-(3-chloroindazol-6-yloxy)ethylamino)-1-hydroxyethyl)phenyl)pyridine-3-sulfonamide], the “β2 receptor %” value in data set [5] (10 µM) was 2.2%. For the same compound, the “β1 receptor %” value in data set [6] was 12%. For the same compound, in data set [7] (10 µM), the “α1 receptor % … Control; Epinephrine” value was 0% and the “α1 receptor % … Norepinephrine” value was determined as 0%.

For `Cc1n[nH]c2cc(OCCNC[C@H](O)c3cccc(NS(=O)(=O)c4ccccc4O)c3)ccc12` [ex241, (R)-2-hydroxy-N-(3-(1-hydroxy-2-(2-(3-methylindazol-6-yloxy)ethylamino)ethyl)phenyl)benzenesulfonamide], the Emax was determined as 8% in data set [1], 0% in data set [2], 94% in data set [3] and 9% in data set [4]. The compound further yielded a 50% effective concentration (EC50) in data set [3] of 43 nM.
